US9192601B2, “Methods for enhancing muscle performance and tone” (Salk Institute for Biological Studies, priority 2006, dated 2015)

Assays:
Format in all cases: in vivo, mouse
C57B/6J mice = assay: Treadmill running endurance test
Procedure: Mice were acclimated to moderate treadmill running (10 m/min for 15 min) every other day for 1 week. After acclimation, basal running endurance was determined by placing each mouse on a treadmill, gradually increasing the speed from 0 to 15 m/min, and maintaining 15 m/min until the mouse was exhausted. The time and distance run until exhaustion were recorded as the basal endurance values (Week 0).
Treatments were administered orally.
Expression of biomarkers characteristic of an oxidative phenotype in skeletal muscle, typically, has been correlated with increased oxidative performance (e.g., increased running endurance) of such skeletal muscle. […] Accordingly, to determine the functional effects of ligand, age and weight matched cohorts of treated and control mice were subjected to an endurance treadmill performance test before (week 0) and after (week 5) treatment.
In addition to affecting the contractile apparatus of skeletal muscle, exercise training also increases skeletal muscle mitochondrial density (e.g., Freyssenet et al., Arch. Physiol. Biochem., 104(2): 129-141, 1996). […] Mice in all groups were acclimated to moderate treadmill running and basal running endurance was determined as described in Example 1. Thereafter, mice in the exercise-trained groups received four weeks (5 days/week) of exercise training on a treadmill inclined at 5 degrees. […] At the end of four weeks, all exercise-trained mice were running for 50 min/day at 18 m/min. […] Unless otherwise noted, V, GW, Tr and GW+Tr subjects described in this and the examples below were similarly treated. At the end of the drug treatment and/or training protocol (Week 5) 6 mice per group were subjected to the running test. […] RNA was prepared real time quantitative PCR performed as described in Example 1.
At the end of the drug treatment and/or training protocol (Week 5) 6 mice per group were subjected to the running test.
At the end of the drug treatment and/or training protocol (Week 5), running endurance of six mice per group was determined in the same manner as was basal running endurance. […] on three mice in each group to confirm that changes observed in the skeletal muscle were not due to the acute run, but were related to the exercise training.

mitochondrial DNA = assay: Mitochondrial DNA expression by QPCR
Procedure: In addition to its effects on the fiber type, exercise training increased skeletal muscle mitochondrial biogenesis, which can be measured as a function of mitochondrial DNA expression levels using quantitative real time PCR (QPCR). Mitochondrial DNA expression levels were determined in muscles of V, GW, Tr, and GW+Tr subjects using quantitative real time PCR. […] Such an increase is known to contribute to enhanced endurance capacity (e.g., Holloszy, Med. Sci. Sports 7:155-64, 1975). Slow-twitch and fast-twitch muscle fiber types also can be distinguished by myosin isoform expression (Gauthier and Lowey, J. Cell Biol. 81:10-25, 1979; Fitzsimons and Hoh, Biochem. J. 193:229-33, 1981). […] Therefore, at least at the transcriptional level, the PPARδ agonist was capable of inducing some proteins characteristic of a slow-twitch muscle fiber phenotype.

p44/42 MAPK = assay: Western blot of phospho-p44/42 MAPK in quadriceps; details: sedentary or trained muscles
From the text: Exercise training is known to activate kinases, such as p44/42 MAPK and AMPK, which regulate gene expression in skeletal muscle (Chen et al., Diabetes, 52:2205-12, 2003; Goodyear et al., Am. J. Physiol, 271:[…]-8, 1996). AMPK affects skeletal muscle gene expression and oxidative metabolism (Chen et al., Diabetes. 52: 2205-12, 2003, Reznick et al., J. Physiol. 574: 33-9, 2006). The interaction between exercise-regulated kinases and PPARδ signaling is described in this Example. The levels of phospho-p44/42 MAPK and phospho-AMPK a subunit and total AMPK were determined in protein homogenates of quadriceps muscle by Western blot. Antibodies specific for phospho-p44/42 MAPK, phospho- and total-AMPK αl antibodies were obtained from Cell Signaling. The phospho-specific AMPK αl antibody recognizes the key activating threonine in the activation loop.

[1] = 4 weeks exercise training + GW1516, Week 5

Compound: Cc1cc(SCc2sc(-c3ccc(C(F)(F)F)cc3)nc2C)ccc1OCC(=O)O [GW1516, (2-methyl-4(((4-methyl-2-(4-trifluoromethylphenyl)-1,3-thiazol-5-yl)methyl)sulfanyl)phenoxy)acetic acid]
- increase in running distance over vehicle-treated trained mice (C57B/6J mice; [1]): 70%
- increase in running time over vehicle-treated trained mice (C57B/6J mice; [1]): 68%
- run longer and further than nontreated controls (C57B/6J mice; combined with exercise training): 60%-75%
- increment in endurance capacity, week 5 vs week 0 (C57B/6J mice; exercise and drug treatment, individual mice): 100%
- time spent or distance run on the treadmill prior to exhaustion vs controls (C57B/6J mice; sedentary mice, 5 mg/kg oral once per day, 4 weeks): did not significantly differ
- running endurance (C57B/6J mice; sedentary mice, long-term treatment up to 5 months): did not change
- increase in mitochondrial DNA expression (mitochondrial DNA; combination of exercise and GW1516): approximately 50%
- mitochondrial DNA expression (mitochondrial DNA; drug alone): not changed
- activation of p44/42 (p44/42 MAPK): failed to activate
